Assay results published in patent US20220054412A1, “TOPICAL FORMULATION AND METHODS FOR […]” (priority 2020, published 2022).

Assay: Use of the topical neuropathy relief formulation by patients (example cases)
Format: in vivo, human
Settings: Patient, severe debilitating neuropathy for six years; medications tried before the formulation; high doses of gabapentin
Text: The neuropathy relief formulation is applied in an amount sufficient to cover the affected area of clean dry skin. The neuropathy relief formulation is rubbed into the affected area until no cream remains visible on the surface. The formulation can be applied one, two, three or four times per day as needed for relief of symptoms.
The following example cases are from a few of the individuals who have been successfully treated with the claimed formulation

Row | Structure (SMILES) | outcome of earlier medications for neuropathy
1 | NCC1(CC(=O)O)CCCCC1 [gabapentin] | unsuccessful
2 | CCC(=O)C(CC(C)N(C)C)(c1ccccc1)c1ccccc1 (centres unmarked) [methadone] | unsuccessful
